Results reported in patent publication US7833967B2, “Synthetic antimicrobial polypeptides” (priority 2003, dated 2010).
Ends that are not written are not given here.

These substances were tested on E. coli TOP10 (assay: Suicide expression system (SES) growth inhibition). Conditions: Table 1; 0.1% inducer (arabinose), pBAD/gIIIA in E. coli TOP10, Bioscreen C 37° C., end point OD450 vs control vector.
Type: cell-based

“10 (RRRPFRPPFRPPFRPPFRPPFRPPFRP; Synthetic antimicrobial peptide) [compound 10]” was tested, and the “Growth inhibition (%)” value was 78%.

Same assay, conditions: Table 2; variants of SEQ ID NO:1, re-tested in the Bioscreen C

With “26 (RRRPPRVPPRFPPRVPPRFPPRVPLRL; Synthetic antimicrobial peptide) [compound 26]” the “Growth inhibition (%)” value was 86%.

Same assay, conditions: Table 3; variants of SEQ ID NO:5, re-tested in the Bioscreen C

First: 42 (RRRPRPFPRPFPRPIPRPFPRPLPRPI; Synthetic antimicrobial peptide) [compound 42]
Second: 28 (RRRPRPFPRPFPRPFPRPFPRPFPRPF; Synthetic antimicrobial peptide) [compound 28]
The “Growth inhibition (%)” value of the first is higher: 66% for the first, 57% for the second.

First: 33 (RRRPRPFPRPFPRPFPRPFPRPFPRPF; Synthetic antimicrobial peptide) [compound 33]
Second: 43 (RRRPRPFPRPFPRPIPRPFPRPVPRPV; Synthetic antimicrobial peptide) [compound 43]
The “Growth inhibition (%)” value of the first is higher: 79% for the first, 68% for the second.

First: 38 (RRRPRPFPRPFPRPFPRPIPRPVPRPI; Synthetic antimicrobial peptide) [compound 38]
Second: 63 (RRRPRPFPRPFPRPVPRPFPRPFPRQSNCSRTKTHLRRGSE; Synthetic antimicrobial peptide) [compound 63]
The “Growth inhibition (%)” value of the first is lower: 64% for the first, 80% for the second.

Same assay, conditions: Table 4; variants of SEQ ID NO:10, re-tested in the Bioscreen C

Compared with “145 (RRRPLRPPVRPPFRPPFRPPLRPPFRP; Synthetic antimicrobial peptide) [compound 145]”, “85 (RRRPFRPPIRPPIRPPFRPPFRPPIRP; Synthetic antimicrobial peptide) [compound 85]” is higher in “Growth inhibition (%)” value: 59% for the first, 67% for the second.

Compared with “97 (RRRPLRPPFRPPFRPPLRPPFRPPIRP; Synthetic antimicrobial peptide) [compound 97]”, “142 (RRRPLRPPIRPPVRPPFRPPVRPPFRP; Synthetic antimicrobial peptide) [compound 142]” is higher in “Growth inhibition (%)” value: 69% for the first, 70% for the second.

Going from “141 (RRRPIRPPIRPPFRPPFRPPLRPPIRP; Synthetic antimicrobial peptide) [compound 141]” to “150 (RRRPIRPPIRPPFRPPIRPPFRPPVRP; Synthetic antimicrobial peptide) [compound 150]”, the “Growth inhibition (%)” value rises from 65% to 68%.

Compared with “173 (RRRPLRPPIRPPLRPPVRPPFRPPFRP; Synthetic antimicrobial peptide) [compound 173]”, “66 (RRRPFRPPFRPPFRPPIRPPLRPPIRP; Synthetic antimicrobial peptide) [compound 66]” is lower in “Growth inhibition (%)” value: 81% for the first, 76% for the second.

Going from “162 (RRRPFRPPIRPPFRPPFRPPLRPPLRP; Synthetic antimicrobial peptide) [compound 162]” to “104 (RRRPFRPPFRPPIRPPFRPPFRPPLRP; Synthetic antimicrobial peptide) [compound 104]”, the “Growth inhibition (%)” value rises from 68% to 76%.

Compared with “165 (RRRPFRPPLRPPFRPPVRPPLRPPVRP; Synthetic antimicrobial peptide) [compound 165]”, “99 (RRRPFRPPIRPPIRPPFRPPIRPPFRP; Synthetic antimicrobial peptide) [compound 99]” is higher in “Growth inhibition (%)” value: 65% for the first, 79% for the second.

Compared with “135 (RRRPIRPPIRPPIRPPIRPPIRPPLRP; Synthetic antimicrobial peptide) [compound 135]”, “166 (RRRPLRPPVRPPFRPPVRPPVRPPLRP; Synthetic antimicrobial peptide) [compound 166]” is higher in “Growth inhibition (%)” value: 38% for the first, 55% for the second.

Going from “119 (RRRPIRPPFRPPIRPPFRPPVRPPVRP; Synthetic antimicrobial peptide) [compound 119]” to “197 (RRRPFRPPFRPPFRPPFRPPLRPPFRP; Synthetic antimicrobial peptide) [compound 197]”, the “Growth inhibition (%)” value rises from 69% to 86%.

Going from “157 (RRRPIRPPFRPPIRPPFRPPVRPPLRP; Synthetic antimicrobial peptide) [compound 157]” to “187 (RRRPIRPPFRPPFRPPVRPPFRPPFRP; Synthetic antimicrobial peptide) [compound 187]”, the “Growth inhibition (%)” value rises from 64% to 85%.

First: 143 (RRRPFRPPVRPPVRPPFRPPLRPPVRP; Synthetic antimicrobial peptide) [compound 143]
Second: 144 (RRRPIRPPLRPPVRPPVRPPFRPPFRP; Synthetic antimicrobial peptide) [compound 144]
The “Growth inhibition (%)” value of the first is lower: 43% for the first, 64% for the second.

Compared with “203 (RRRPFRPPIRPPFRPPIRPPFRPPFRP; Synthetic antimicrobial peptide) [compound 203]”, “78 (RRRPLRPPFRPPFRPPFRPPIRPPVRP; Synthetic antimicrobial peptide) [compound 78]” is higher in “Growth inhibition (%)” value: 79% for the first, 83% for the second.

First: 174 (RRRPIRPPIRPPFRPPLRPPFRPPFRP; Synthetic antimicrobial peptide) [compound 174]
Second: 110 (RRRPFRPPLRPPFRPPIRPPIRPPVRP; Synthetic antimicrobial peptide) [compound 110]
The “Growth inhibition (%)” value of the first is higher: 80% for the first, 73% for the second.

Going from “195 (RRRPFRPPIRPPFRPPVRPPVRPPVRP; Synthetic antimicrobial peptide) [compound 195]” to “183 (RRRPFRPPVRPPLRPPFRPPFRPPFRP; Synthetic antimicrobial peptide) [compound 183]”, the “Growth inhibition (%)” value rises from 76% to 80%.

Compared with “107 (RRRPFRPPFRPPVRPPFRPPIRPPFRP; Synthetic antimicrobial peptide) [compound 107]”, “84 (RRRPIRPPLRPPIRPPFRPPFRPPLRP; Synthetic antimicrobial peptide) [compound 84]” is higher in “Growth inhibition (%)” value: 69% for the first, 80% for the second.

In the case of “151 (RRRPLRPPVRPPLRPPVRPPFRPPFRP; Synthetic antimicrobial peptide) [compound 151]”, the “Growth inhibition (%)” value is reported as 68%.

Same assay, conditions: Table 5; mixed-motif library, re-tested in the Bioscreen C

First: 245 (RRRPPRLPRPFPVRPPPRVPRPFPVRP; Synthetic antimicrobial peptide) [compound 245]
Second: 251 (RRRPPRLPRPIPFRPPPRIPRPLPFRP; Synthetic antimicrobial peptide) [compound 251]
The “Growth inhibition (%)” value of the first is lower: 95% for the first, 96% for the second.

Compared with “246 (RRRPPRLPRPFPVRPPPRVPRPFPVRP; Synthetic antimicrobial peptide) [compound 246]”, “240 (RRRPPRLPRPFPVRPPPRFPRPVPFRP; Synthetic antimicrobial peptide) [compound 240]” is lower in “Growth inhibition (%)” value: 95% for the first, 91% for the second.

Going from “317 (RRRTRHVFARPVPVRPPPRVPRPFPVRP; Synthetic antimicrobial peptide) [compound 317]” to “308 (RRRPPRLPRPVPVRPPPRVPRPVPVRP; Synthetic antimicrobial peptide) [compound 308]”, the “Growth inhibition (%)” value rises from 95% to 96%.

Compared with “258 (RRRPPRLPRPIPVRPPPRFPRPIPFRP; Synthetic antimicrobial peptide) [compound 258]”, “229 (RRRPPRLPRPFPLRPPPRFPRPFPLRP; Synthetic antimicrobial peptide) [compound 229]” is higher in “Growth inhibition (%)” value: 92% for the first, 95% for the second.

“236 (RRRPPRLPRPFPLRPPPRVPRPVPFRP; Synthetic antimicrobial peptide) [compound 236]” and “272 (RRRPPRLPRPLPIRPPPRFPRPIPVRP; Synthetic antimicrobial peptide) [compound 272]” are the same in “Growth inhibition (%)” value: 91% for the first, 91% for the second.

Going from “276 (RRRPPRLPRPLPIRPPPRLPRPVPVRP; Synthetic antimicrobial peptide) [compound 276]” to “300 (RRRPPRLPRPVPIRPPPRIPRPIPFRP; Synthetic antimicrobial peptide) [compound 300]”, the “Growth inhibition (%)” value falls from 94% to 92%.

“252 (RRRPPRLPRPIPFRPPPRIPRPVPVRP; Synthetic antimicrobial peptide) [compound 252]” and “301 (RRRPPRLPRPVPIRPPPRVPRPVPLRP; Synthetic antimicrobial peptide) [compound 301]” are the same in “Growth inhibition (%)” value: 92% for the first, 92% for the second.

Going from “319 (RRRPPRVPRPFPVRPPPRVPRPIPFVHNCSRTKTHLRRGSE; Synthetic antimicrobial peptide) [compound 319]” to “307 (RRRPPRLPRPVPVRPPPRVPRPVPFRP; Synthetic antimicrobial peptide) [compound 307]”, the “Growth inhibition (%)” value falls from 93% to 92%.

What follows are substances tested on human red blood cells (hRBC) (assay: not given). Conditions: red cells of human, 47 micrograms/ml.
Type: cell-based
Description: The ability of the antimicrobial peptides to lyse human red blood cells (hRBC) was analyzed. The Red Blood Cell Test assay provides a simple test system that assesses the membranolytic activity of test materials. It is suitable as a screening assay for hemolytic properties. Hemoglobin release is a useful endpoint of cell membrane integrity. Released hemoglobin is detected by measuring absorbance at 540 nm. Normally, the concentration resulting in 50% hemolysis relative to a totally lysed sample (HL50) would be calculated; however due to the low hemolytic activity of the tested peptides, this was not done in this Example. An 8% RBC suspension (12 days old) was used in the present test setup.
Since the peptides were dissolved in 0.01% acetic acid, vehicle control of the 0.01% acetic acid was included. PBS with 25%, 10%, and 5% 0.01% acetic acid was included on both plates.
To verify that a dose/response effect exists, the hemolytic activity of SDS was also tested.

First: RRRPRPVPRPFPRPVPRPLPRPFPRPF [SEQ ID NO: 61]
Second: RRRPPRLPRPFPVRPPPRFPRPFPLRP [SEQ ID NO: 239]
The “Hemolysis (%)” value of the first is lower: 16% for the first, 19% for the second.

With “RRRPFRPPFRPPFRPPVRPPVRPPFRP [SEQ ID NO: 79]” the “Hemolysis (%)” value was 16%.

Same assay, conditions: red cells of human, 94 micrograms/ml

“RRRPRPVPRPFPRPVPRPLPRPFPRPF [SEQ ID NO: 61]” and “RRRPPRLPRPFPVRPPPRFPRPFPLRP [SEQ ID NO: 239]” are the same in “Hemolysis (%)” value: 16% for the first, 16% for the second.

“RRRPFRPPFRPPFRPPVRPPVRPPFRP [SEQ ID NO: 79]” was tested, and the “Hemolysis (%)” value was 16%.

Same assay, conditions: red cells of human, 188 micrograms/ml

“RRRPRPVPRPFPRPVPRPLPRPFPRPF [SEQ ID NO: 61]” and “RRRPPRLPRPFPVRPPPRFPRPFPLRP [SEQ ID NO: 239]” are the same in “Hemolysis (%)” value: 16% for the first, 16% for the second.

In the case of “RRRPFRPPFRPPFRPPVRPPVRPPFRP [SEQ ID NO: 79]”, the “Hemolysis (%)” value is reported as 17%.

Same assay, conditions: red cells of human, 375 micrograms/ml

Compared with “RRRPRPVPRPFPRPVPRPLPRPFPRPF [SEQ ID NO: 61]”, “RRRPPRLPRPFPVRPPPRFPRPFPLRP [SEQ ID NO: 239]” is higher in “Hemolysis (%)” value: 17% for the first, 18% for the second.

With “RRRPFRPPFRPPFRPPVRPPVRPPFRP [SEQ ID NO: 79]” the “Hemolysis (%)” value was 17%.
